Six compounds from US20210032253A1, “PYRAZOLO[1,5-A][1,3,5]TRIAZINE-2-AMINE DERIVATIVE, PREPARATION METHOD THEREFOR AND MEDICAL USE THEREOF” (JIANGSU HENGRUI MEDICINE CO., LTD., priority 2018, published 2021) can be followed below.

The structures appear in SMILES notation. Bounds are passed on as bounds.

Type in all cases: cell-based
Assay [1] deals with T1, adenosine A2a receptor (A2aR) (Homo sapiens, UniProt P29274).
T1 construct: expressed in transfected cells; host or cells: CHO-K1
In words: Inhibition of adenosine A2a receptor cAMP signaling pathway in CHO-K1/A2aR cells (HTRF cAMP dynamic 2 kit). The following applies: Table 1, 20 nM ethylcarbazole. The source says: (§1) Test Example 1. Determination of the inhibitory activities of the compounds of the present disclosure on the adenosine A2a receptor (A2aR) cAMP signaling pathway, the adenosine A1 receptor (A1R) cAMP signaling pathway and the adenosine A3 receptor (A3R) cAMP signaling pathway.
(§2) The inhibitory activities of the compounds of the present disclosure on the adenosine A2a receptor (A2aR) cAMP signaling pathway, the adenosine A1 receptor cAMP signaling pathway and the adenosine A3 receptor cAMP signaling pathway were determined by the following methods. The experimental method is briefly described as follows:
CHO-K1/A2aR cells were cultured in DMEM/F12 medium containing 10% fetal bovine serum and 800 μg/mL Zeocin™. The cells were digested with the cell dissociation buffer during the experiment. The cells were resuspended in the HBSS buffer containing 20 mM HEPES and 0.1% bovine serum albumin and counted, and the cell density was adjusted to 10^6 cells/mL. In 384-well plates, each well was added with 5 μL of the cell suspension, and 2.5 µL of test compounds (4× concentration) formulated with the HBSS buffer containing 20 mM HEPES, 0.1% bovine serum albumin, 54 μM rolipram and 2.7 U/mL adenosine deaminase, and the plates were incubated at room temperature for 30 minutes. Each well was then added with 2.5 μL of ethylcarbazole (4× concentration) formulated with the balanced salt buffer containing 20 mM HEPES, 0.1% bovine serum albumin, 54 μM rolipram and 2.7 U/mL adenosine deaminase, and the plates were incubated at room temperature for 30 minutes. The final concentrations of the compounds were: 10000, 2000, 400, 80, 16, 3.2, 0.64, 0.128, 0.0256, 0.00512, and 0.001024 nM. The final concentration of ethylcarbazole was 20 nM. Intracellular cAMP concentration was determined with cAMP dynamic 2 kits. cAMP-d2 and Anti-cAMP—Eu-Cryptate were diluted respectively with the cAMP lysis buffer at a ratio of 1:4. Each well was added with 5 μL of the diluted cAMP-d2, followed by addition of 5 μL of the diluted Anti-cAMP—Eu-Cryptate, and the plates were incubated at room temperature in the dark for 1 hour. The HTRF signal values were read by the PHERAstar multi-function microplate reader.

The target in assay [2] is T2, adenosine A1 receptor (A1R) (Homo sapiens, UniProt P30542).
T2 construct: expressed in transfected cells; host or cells: CHO-K1
T2 sequence (P30542 1-326): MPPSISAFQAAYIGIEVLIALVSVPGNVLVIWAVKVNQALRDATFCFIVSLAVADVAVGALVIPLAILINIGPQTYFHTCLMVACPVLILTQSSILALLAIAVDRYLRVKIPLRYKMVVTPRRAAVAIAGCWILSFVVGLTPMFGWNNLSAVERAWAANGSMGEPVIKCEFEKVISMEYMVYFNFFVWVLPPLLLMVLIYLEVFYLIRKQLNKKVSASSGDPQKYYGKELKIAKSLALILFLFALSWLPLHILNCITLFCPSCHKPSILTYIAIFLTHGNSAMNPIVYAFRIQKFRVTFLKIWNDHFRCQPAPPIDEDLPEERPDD
In words: Inhibition of adenosine A1 receptor cAMP signaling pathway in CHO-K1/A1R cells (HTRF cAMP dynamic 2 kit). The following applies: Table 2; for IC50: CHO-K1/A1R cells, cAMP, 10 μM forskolin, 10 nM CPA; for IC50 ratio (A1R/A2aR): selectivity A1R over A2aR.
Text: as §1, §2
CHO-K1/A1R cells were cultured in DMEMIF12 medium containing 10% fetal bovine serum and 1 mg/mL G418. The cells were digested with the cell dissociation buffer during the experiment. The cells were then resuspended in the HBSS buffer containing 20 mM HEPES and 0.1% bovine serum albumin and counted, and the cell density was adjusted to 5×10^5 cells/mL. In 384-well plates, each well was added with 12.5 μL of the cell suspension, and 6.25 μL of the test compounds (4× concentration) formulated with the HBSS buffer containing 20 mM HEPES, 0.1% bovine serum albumin, 54 μM rolipram and 2.7 U/mL adenosine deaminase, and the plates were incubated at room temperature for 30 minutes. Each well was then added with 6.25 μL of forskolin and N6-cyclopentyladenosine (4× concentration) formulated with the HBSS buffer containing 20 mM HEPES, 0.1% bovine serum albumin, 54 μM rolipram and 2.7 U/mL adenosine deaminase, and the plates were incubated at room temperature for 30 minutes. The final concentrations of the compounds were: 100000, 10000, 1000, 100, 10, 1, 0.1 and 0 nM. The final concentration of forskolin was 10 μM. The final concentration of CPA was 10 nM. Intracellular cAMP concentration was determined with cAMP dynamic 2 kits. cAMP-d2 and Anti-cAMP—Eu-Cryptate were diluted respectively with the cAMP lysis buffer at a ratio of 1:4. Each well was added with 12.5 μL of the diluted cAMP-d2, followed by addition of 12.5 μL of the diluted Anti-cAMP—Eu-Cryptate, and the plates were incubated at room temperature in the dark for 1 hour. The HTRF signal values were read by the PHERAstar multi-function microplate reader.

For assay [3], the target named is T3, adenosine A3 receptor (A3R) (Homo sapiens, UniProt P0DMS8).
T3 construct: expressed in transfected cells; host or cells: CHO-K1
T3 sequence (P0DMS8 1-318): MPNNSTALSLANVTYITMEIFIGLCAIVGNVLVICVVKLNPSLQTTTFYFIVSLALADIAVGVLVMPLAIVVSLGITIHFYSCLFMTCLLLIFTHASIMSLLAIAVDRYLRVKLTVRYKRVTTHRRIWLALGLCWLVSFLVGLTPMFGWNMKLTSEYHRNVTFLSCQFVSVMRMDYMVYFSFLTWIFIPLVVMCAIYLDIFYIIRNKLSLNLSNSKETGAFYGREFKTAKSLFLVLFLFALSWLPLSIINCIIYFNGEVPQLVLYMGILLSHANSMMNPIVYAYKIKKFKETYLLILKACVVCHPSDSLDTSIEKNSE
In words: Inhibition of adenosine A3 receptor cAMP signaling pathway in CHO-K1/A3R cells (HTRF cAMP dynamic 2 kit). The following applies: Table 3; for IC50: CHO-K1/A3R cells, cAMP, 10 μM forskolin, 5 nM 2Cl-IB-MECA; for IC50 ratio (A3R/A2aR): selectivity A3R over A2aR.
Text: as §1, §2
CHO-K1/A3R cells were cultured in DMEMIF12 medium containing 10% fetal bovine serum and 10 μg/mL puromycin. The cells were digested with the cell dissociation buffer during the experiment. The cells were resuspended in the HBSS buffer containing 20 mM HEPES and 0.1% bovine serum albumin and counted, and the cell density was adjusted to 5×10^5 cells/mL. In 384-well plates, each well was added with 12.5 μL of the cell suspension, and 6.25 μL of the test compounds (4× concentration) formulated with the HBSS buffer containing 20 mM HEPES, 0.1% bovine serum albumin, 54 μM rolipram and 2.7 U/mL adenosine deaminase, and the plates were incubated at room temperature for 30 minutes. Each well was then added with 6.25 μL of forskolin and 2Cl-IB-MECA (4× concentration) formulated with the HBSS buffer containing 20 mM HEPES, 0.1% bovine serum albumin, […] rolipram and 2.7 U/mL adenosine deaminase, and the plates were incubated at room temperature for 30 minutes. The final concentrations of the compounds were: 100000, 10000, 1000, 100, 10, 1, 0.1 and 0 nM. The final concentration of forskolin was 10 μM. The final concentration of 2Cl-IB-MECA was 5 nM. Intracellular cAMP concentration was determined with cAMP dynamic 2 kits. cAMP-d2 and Anti-cAMP—Eu-Cryptate were diluted respectively with the cAMP lysis buffer at a ratio of 1:4. Each well was added with 12.5 μL of the diluted cAMP-d2, followed by addition of 12.5 μL of the diluted Anti-cAMP—Eu-Cryptate, and the plates were incubated at room temperature in the dark for 1 hour. The HTRF signal values were read by the PHERAstar multi-function microplate reader. IC50 values for the inhibitory activities of the compounds were calculated by Graphpad Prism software, and are shown in Table 3.
For orientation: Time-resolved FRET reads energy transfer from a long-lived donor to a nearby acceptor.

T1 sequence (P29274 whole entry): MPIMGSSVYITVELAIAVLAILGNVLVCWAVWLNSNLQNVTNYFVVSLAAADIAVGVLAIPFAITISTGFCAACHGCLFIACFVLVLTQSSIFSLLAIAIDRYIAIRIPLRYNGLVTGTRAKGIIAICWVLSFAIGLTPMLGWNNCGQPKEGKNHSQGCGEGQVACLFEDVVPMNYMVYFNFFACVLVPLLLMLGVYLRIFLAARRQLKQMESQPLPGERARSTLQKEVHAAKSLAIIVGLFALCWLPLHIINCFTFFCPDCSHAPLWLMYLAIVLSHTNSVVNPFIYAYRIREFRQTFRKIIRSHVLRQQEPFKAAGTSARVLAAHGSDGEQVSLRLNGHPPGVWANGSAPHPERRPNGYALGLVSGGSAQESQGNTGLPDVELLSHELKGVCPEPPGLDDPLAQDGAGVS

`Cc1ccc(-c2nc(N)nc3c(Nc4cccc(CO[C@H]5CCOC5)c4F)cnn23)o1` [Example 26, (S)—N^8-(2-fluoro-3-(((tetrahydrofuran-3-yl)oxy)methyl)phenyl)-4-(5-methylfuran-2-yl)pyrazolo[1,5-a][1,3,5]triazine-2,8-diamine] showed an IC50 in assay [1] of 1.66 nM. Also, in assay [2], the IC50 was 1210 nM and the “IC50 ratio (A1R/A2aR)” value is 731^. In assay [3], inhibition was half-maximal at 5300 nM (IC50) and the “IC50 ratio (A3R/A2aR)” value is >10^3.

In the case of `Cc1ccc(-c2nc(N)nc3c(Nc4cccc(CN5CCOCC5)n4)cnn23)o1` [Example 27, 4-(5-Methylfuran-2-yl)-N^8-(6-(morpholinomethyl)pyridin-2-yl)pyrazolo[1,5-a][1,3,5]triazine-2,8-diamine], the half-inhibitory concentration (IC50) in assay [1] was determined as 1.9 nM. Moreover, in assay [2], it took 286 nM to reach half-maximal inhibition (IC50) and the “IC50 ratio (A1R/A2aR)” value is recorded as 150^. In assay [3], the midpoint of inhibition, the IC50, lay at 977 nM and the “IC50 ratio (A3R/A2aR)” value is recorded as 514^.

Regarding `Cc1ccc(-c2nc(N)nc3c(Sc4cccc(CO[C@H]5CCOC5)n4)cnn23)o1` [Example 28, (S)-4-(5-Methylfuran-2-yl)-8-((6-(((tetrahydrofuran-3-yl)oxy)methyl)pyridin-2-yl)thio)pyrazolo[1,5-a][1,3,5]triazin-2-amine], the half-inhibitory concentration (IC50) was 2.13 nM in assay [1], 595 nM in assay [2] and 1150 nM in assay [3]. In addition, the “IC50 ratio (A1R/A2aR)” value in assay [2] is listed as 279^. Moreover, the “IC50 ratio (A3R/A2aR)” value in assay [3] is given as 540^.

With `Cc1ccc(-c2nc(N)nc3c(Nc4cccc(CN5CCN(C)CC5)n4)cnn23)o1` [Example 29, 4-(5-Methylfuran-2-yl)-N^8-(6-((4-methylpiperazin-1-yl)methyl)pyridin-2-yl)pyrazolo[1,5-a][1,3,5]triazine-2,8-diamine], the IC50 came out at 2.8 nM in assay [1], 3690 nM in assay [2] and 2180 nM in assay [3]. Besides, the “IC50 ratio (A1R/A2aR)” value in assay [2] is listed as >10^3. The “IC50 ratio (A3R/A2aR)” value in assay [3] is listed as 779^.

In the case of `Cc1ccc(-c2nc(N)nc3c(Nc4cccc(CN5CC6COCC6C5)n4)cnn23)o1` (stereo not drawn) [Example 30, 4-(5-Methylfuran-2-yl)-N^8-(6-((tetrahydro-1H-furo[3,4-c]pyrrol-5(3H)-yl)methyl)pyridin-2-yl)pyrazolo[1,5-a][1,3,5]triazine-2,8-diamine], the IC50 in assay [1] was 2.87 nM. For the same compound, in assay [2], the half-maximal inhibitory concentration (IC50) was 684 nM and the “IC50 ratio (A1R/A2aR)” value was 238^. In assay [3], the IC50 is 7600 nM and the “IC50 ratio (A3R/A2aR)” value is on record as >10^3.

With `Cc1ccc(-c2nc(N)nc3c(Nc4cccc(CN5CC6(COC6)C5)n4)cnn23)o1` [Example 32, N^8-(6-((2-Oxa-6-azaspiro[3.3]heptan-6-yl)methyl)pyridin-2-yl)-4-(5-methylfuran-2-yl)pyrazolo[1,5-a][1,3,5]triazine-2,8-diamine], the IC50 in assay [1] amounted to 3.74 nM. In assay [2], the midpoint of inhibition, the IC50, lay at 287 nM and the “IC50 ratio (A1R/A2aR)” value was 78^. Further, in assay [3], the IC50 stood at 5610 nM and the “IC50 ratio (A3R/A2aR)” value is listed as >10^3.

One may read the IC50 as the concentration at which inhibition is half-maximal. Lower therefore signals greater potency in that assay.
